The results in this text go back to ChEMBL document CHEMBL5316324, “Discovery, Characterization, and Engineering of LvIC, an α4/4-Conotoxin That Selectively Blocks Rat α6/α3β4 Nicotinic Acetylcholine Receptors” (J Med Chem, 2023).

The source made the active and inactive calls. The rule behind the calls is not given here. Peptide text beside a SMILES is read from it.

Experiment [1] in a line: Inhibition of rat alpha6/alpha3 E195A mutant beta4 nAChR expressed in Stage V-VI Xenopus laevis Oocytes assessed as inhibition of acetylcholine-induced current in presence of acetylcholine by electrophysiological recording. The note with it: Oocyte. The class given is cell-based.
In experiment [2] the target is Nicotinic acetylcholine receptor alpha9/alpha10 (Rattus norvegicus, UniProt P43144+Q9JLB5). Nature of the experiment: Inhibition of rat alpha9/alpha10 nAChR expressed in Stage V-VI Xenopus laevis Oocytes assessed as inhibition of acetylcholine-induced current in presence of acetylcholine by electrophysiological recording. The format is cell-based, Oocyte.
Sequence of Nicotinic acetylcholine receptor alpha9/alpha10 (P43144 whole entry): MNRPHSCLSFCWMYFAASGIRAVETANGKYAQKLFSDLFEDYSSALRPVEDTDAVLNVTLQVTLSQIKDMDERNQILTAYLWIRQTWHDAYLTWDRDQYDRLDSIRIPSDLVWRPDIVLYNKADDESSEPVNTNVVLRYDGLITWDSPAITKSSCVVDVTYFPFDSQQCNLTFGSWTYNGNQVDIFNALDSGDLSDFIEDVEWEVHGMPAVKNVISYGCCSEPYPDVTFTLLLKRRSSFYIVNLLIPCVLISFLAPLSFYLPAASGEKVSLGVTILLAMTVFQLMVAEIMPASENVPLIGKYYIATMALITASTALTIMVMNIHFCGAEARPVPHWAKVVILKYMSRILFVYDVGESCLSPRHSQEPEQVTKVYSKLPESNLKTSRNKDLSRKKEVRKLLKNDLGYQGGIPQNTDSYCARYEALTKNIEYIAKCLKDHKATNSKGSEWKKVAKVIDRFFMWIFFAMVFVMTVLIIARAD
Sequence of Nicotinic acetylcholine receptor alpha9/alpha10 (Q9JLB5 whole entry): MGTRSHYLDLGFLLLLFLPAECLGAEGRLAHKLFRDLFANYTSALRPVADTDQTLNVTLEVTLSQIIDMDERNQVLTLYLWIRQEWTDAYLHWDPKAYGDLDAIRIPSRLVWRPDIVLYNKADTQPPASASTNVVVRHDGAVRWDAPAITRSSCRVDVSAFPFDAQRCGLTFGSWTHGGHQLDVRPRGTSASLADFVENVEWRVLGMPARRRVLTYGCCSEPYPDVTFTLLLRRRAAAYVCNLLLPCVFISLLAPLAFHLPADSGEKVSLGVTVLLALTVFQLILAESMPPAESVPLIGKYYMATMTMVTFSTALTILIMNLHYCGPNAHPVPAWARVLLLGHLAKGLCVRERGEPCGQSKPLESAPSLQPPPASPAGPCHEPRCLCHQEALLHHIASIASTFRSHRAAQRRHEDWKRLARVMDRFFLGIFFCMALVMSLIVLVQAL
Experiment [3] deals with Nicotinic acetylcholine receptor alpha6/alpha3/beta2/beta3 (Rattus norvegicus, UniProt P04757+P12390+P12391+P43143). Nature of the experiment: Inhibition of rat alpha6/alpha3beta2beta3 nAChR expressed in Stage V-VI Xenopus laevis Oocytes assessed as inhibition of acetylcholine-induced current in presence of acetylcholine by electrophysiological recording. The class given is cell-based, Oocyte.
Sequence of Nicotinic acetylcholine receptor alpha6/alpha3/beta2/beta3 (P04757 whole entry): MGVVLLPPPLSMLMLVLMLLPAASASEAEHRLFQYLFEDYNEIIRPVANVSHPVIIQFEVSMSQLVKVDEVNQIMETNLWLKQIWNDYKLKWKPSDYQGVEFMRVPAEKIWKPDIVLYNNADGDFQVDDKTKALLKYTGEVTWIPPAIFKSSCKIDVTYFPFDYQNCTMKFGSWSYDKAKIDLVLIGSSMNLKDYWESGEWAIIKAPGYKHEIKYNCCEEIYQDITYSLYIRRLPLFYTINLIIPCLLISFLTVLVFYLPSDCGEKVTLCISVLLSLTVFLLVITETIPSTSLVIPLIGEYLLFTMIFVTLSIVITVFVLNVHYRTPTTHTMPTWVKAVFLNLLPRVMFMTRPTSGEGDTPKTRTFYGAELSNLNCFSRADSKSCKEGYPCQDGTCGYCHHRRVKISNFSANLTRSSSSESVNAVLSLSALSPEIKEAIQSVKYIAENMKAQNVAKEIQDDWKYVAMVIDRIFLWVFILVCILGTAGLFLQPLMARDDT
Sequence of Nicotinic acetylcholine receptor alpha6/alpha3/beta2/beta3 (P12390 whole entry): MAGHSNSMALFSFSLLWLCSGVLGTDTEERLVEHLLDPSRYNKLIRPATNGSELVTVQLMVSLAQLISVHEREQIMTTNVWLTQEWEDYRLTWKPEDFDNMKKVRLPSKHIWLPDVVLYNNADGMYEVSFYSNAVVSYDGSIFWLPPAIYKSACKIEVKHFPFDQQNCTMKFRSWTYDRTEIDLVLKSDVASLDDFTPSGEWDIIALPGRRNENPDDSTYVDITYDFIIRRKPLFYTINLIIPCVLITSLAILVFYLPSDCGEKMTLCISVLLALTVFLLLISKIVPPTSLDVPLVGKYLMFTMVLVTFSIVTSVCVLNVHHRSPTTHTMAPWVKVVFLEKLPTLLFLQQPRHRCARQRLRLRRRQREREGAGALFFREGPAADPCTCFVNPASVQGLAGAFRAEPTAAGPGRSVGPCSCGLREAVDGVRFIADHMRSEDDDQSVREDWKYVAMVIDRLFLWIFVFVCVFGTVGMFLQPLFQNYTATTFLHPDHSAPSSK
Sequence of Nicotinic acetylcholine receptor alpha6/alpha3/beta2/beta3 (P12391 whole entry): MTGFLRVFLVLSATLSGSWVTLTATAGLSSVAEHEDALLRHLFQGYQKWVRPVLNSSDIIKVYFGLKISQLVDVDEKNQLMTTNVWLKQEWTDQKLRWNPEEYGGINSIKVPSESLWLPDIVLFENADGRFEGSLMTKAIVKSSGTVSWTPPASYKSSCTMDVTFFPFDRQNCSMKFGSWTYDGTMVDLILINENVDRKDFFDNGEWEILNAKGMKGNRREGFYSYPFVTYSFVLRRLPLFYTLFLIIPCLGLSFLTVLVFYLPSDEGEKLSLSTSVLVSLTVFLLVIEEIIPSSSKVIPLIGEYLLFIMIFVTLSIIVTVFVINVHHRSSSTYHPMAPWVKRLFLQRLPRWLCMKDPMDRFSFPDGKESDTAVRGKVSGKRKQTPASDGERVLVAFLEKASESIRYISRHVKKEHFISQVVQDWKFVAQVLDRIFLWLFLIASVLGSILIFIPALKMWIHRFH
Sequence of Nicotinic acetylcholine receptor alpha6/alpha3/beta2/beta3 (P43143 whole entry): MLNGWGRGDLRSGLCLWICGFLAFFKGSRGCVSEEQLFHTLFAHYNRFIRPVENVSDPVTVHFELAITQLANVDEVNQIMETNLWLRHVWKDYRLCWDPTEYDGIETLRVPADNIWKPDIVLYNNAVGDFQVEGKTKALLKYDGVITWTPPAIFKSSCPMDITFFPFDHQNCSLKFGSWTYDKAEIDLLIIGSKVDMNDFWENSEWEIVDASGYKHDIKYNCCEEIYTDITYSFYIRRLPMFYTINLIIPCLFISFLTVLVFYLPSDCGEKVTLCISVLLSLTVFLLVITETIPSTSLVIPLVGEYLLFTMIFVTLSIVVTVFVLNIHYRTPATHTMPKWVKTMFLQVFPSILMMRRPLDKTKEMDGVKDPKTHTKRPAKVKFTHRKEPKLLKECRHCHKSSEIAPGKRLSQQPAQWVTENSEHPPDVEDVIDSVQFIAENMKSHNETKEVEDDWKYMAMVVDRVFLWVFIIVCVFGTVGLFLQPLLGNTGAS

Experiment [4] relates to Oocyte. Nature of the experiment: Inhibition of rat alpha6/alpha3 E34M mutant beta4 nAChR expressed in Stage V-VI Xenopus laevis Oocytes assessed as inhibition of acetylcholine-induced current by measuring recovery at 10 uM preincubated with compound for 5 mins followed by measured after 20 mins washout by electrophysiological recording. The class given is cell-based. The arrangement: scale not given: the % may be the effect or the level left. As to conditions: time 25.0 min.

Experiment [5] concerns the target Neuronal acetylcholine receptor; alpha2/beta4 (Rattus norvegicus, UniProt P12389+P12392). Nature of the experiment: Inhibition of rat alpha2/beta4 nAChR expressed in Stage V-VI Xenopus laevis Oocytes assessed as inhibition of acetylcholine-induced current in presence of acetylcholine by electrophysiological recording. The format is cell-based, Oocyte.
The target of experiment [6] is Neuronal acetylcholine receptor; alpha2/beta2 (Rattus norvegicus, UniProt P12389+P12390). Nature of the experiment: Inhibition of rat alpha2/beta2 nAChR expressed in Stage V-VI Xenopus laevis Oocytes assessed as inhibition of acetylcholine-induced current in presence of acetylcholine by electrophysiological recording. The format is cell-based, Oocyte.
Experiment [7] concerns Oocyte. Nature of the experiment: Inhibition of rat alpha6/alpha3 E195A mutant beta4 nAChR expressed in Stage V-VI Xenopus laevis Oocytes assessed as inhibition of acetylcholine-induced current by measuring recovery time at 10 uM preincubated with compound for 5 mins followed by washout in presence of acetylcholine by electrophysiological recording. The class given is cell-based.

Experiment [8] deals with Neuronal acetylcholine receptor; alpha4/beta2 (Rattus norvegicus, UniProt P09483+P12390). Nature of the experiment: Inhibition of rat alpha4/beta2 nAChR expressed in Stage V-VI Xenopus laevis Oocytes assessed as inhibition of acetylcholine-induced current in presence of acetylcholine by electrophysiological recording. The format is cell-based, Oocyte.
The target of experiment [9] is Neuronal acetylcholine receptor; alpha3/beta4 (Rattus norvegicus, UniProt P04757+P12392). Nature of the experiment: Inhibition of rat alpha3/beta4 nAChR expressed in Stage V-VI Xenopus laevis Oocytes assessed as inhibition of acetylcholine-induced current in presence of acetylcholine by electrophysiological recording. The format is cell-based, Oocyte.
Sequence of Neuronal acetylcholine receptor; alpha3/beta4 (P04757 whole entry): as the sequence (P04757 whole entry) above
Sequence of Neuronal acetylcholine receptor; alpha3/beta4 (P12392 whole entry): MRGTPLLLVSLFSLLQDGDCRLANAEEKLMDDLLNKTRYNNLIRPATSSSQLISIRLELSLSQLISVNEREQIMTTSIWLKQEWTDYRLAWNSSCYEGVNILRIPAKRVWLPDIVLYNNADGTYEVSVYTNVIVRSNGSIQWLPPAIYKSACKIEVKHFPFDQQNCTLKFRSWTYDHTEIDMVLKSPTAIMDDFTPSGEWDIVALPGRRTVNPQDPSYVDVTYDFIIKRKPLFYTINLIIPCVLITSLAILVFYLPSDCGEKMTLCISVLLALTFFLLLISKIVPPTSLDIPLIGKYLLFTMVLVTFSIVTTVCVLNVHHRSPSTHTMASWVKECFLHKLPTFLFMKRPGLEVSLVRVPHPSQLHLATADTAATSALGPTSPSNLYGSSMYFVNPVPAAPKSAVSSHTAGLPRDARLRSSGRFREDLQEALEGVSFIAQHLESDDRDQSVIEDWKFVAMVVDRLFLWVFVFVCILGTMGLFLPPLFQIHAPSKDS
Experiment [10] is filed under the species Rattus norvegicus. Nature of the experiment: Selectivity index, ratio of IC50 for rat alpha6/alpha3beta4 E34M mutant nAChR expressed in Stage V-VI Xenopus laevis oocytes to IC50 for rat alpha6/alpha3beta4 nAChR expressed in Stage V-VI Xenopus laevis Oocytes by electrophysiological recording. The format is cell-based.
The species entered for experiment [11] is Rattus norvegicus. Nature of the experiment: Selectivity index, ratio of IC50 for rat alpha6/alpha3beta4 D161A mutant nAChR expressed in Stage V-VI Xenopus laevis oocytes to IC50 for rat alpha6/alpha3beta4 nAChR expressed in Stage V-VI Xenopus laevis Oocytes by electrophysiological recording. The format is cell-based.
A short description of experiment [12]: Inhibition of rat alpha6/alpha3beta4 D161A mutant nAChR expressed in Stage V-VI Xenopus laevis Oocytes assessed as inhibition of acetylcholine-induced current in presence of acetylcholine by electrophysiological recording. The format is cell-based. As to conditions: Oocyte.
Experiment [13] has as its target Neuronal acetylcholine receptor; alpha4/beta2 (Rattus norvegicus) (UniProt P09483+P12390). Nature of the experiment: Inhibition of rat alpha4/beta2 nAChR expressed in Stage V-VI Xenopus laevis Oocytes assessed as inhibition of acetylcholine-induced current at 10 uM in presence of acetylcholine by electrophysiological recording relative to control. The class given is cell-based. As to conditions: Oocyte.

Experiment [14] addresses Neuronal acetylcholine receptor; alpha2/beta2 (Rattus norvegicus) (UniProt P12389+P12390). Nature of the experiment: Inhibition of rat alpha2/beta2 nAChR expressed in Stage V-VI Xenopus laevis Oocytes assessed as inhibition of acetylcholine-induced current at 10 uM in presence of acetylcholine by electrophysiological recording relative to control. As to conditions: Oocyte. The class given is cell-based.

Experiment [15] addresses T1, Nicotinic acetylcholine receptor alpha6/alpha3/beta2/beta3 (Rattus norvegicus) (UniProt P04757+P12390+P12391+P43143). Nature of the experiment: Inhibition of rat alpha6/alpha3beta2beta3 nAChR expressed in Stage V-VI Xenopus laevis Oocytes assessed as inhibition of acetylcholine-induced current at 10 uM in presence of acetylcholine by electrophysiological recording relative to control. The class given is cell-based. The note with it: Oocyte.

The species named for experiment [16] is Rattus norvegicus. Nature of the experiment: Selectivity index, ratio of IC50 for rat alpha6/alpha3 D152A mutant beta4 nAChR expressed in Stage V-VI Xenopus laevis oocytes to IC50 for rat alpha6/alpha3beta4 nAChR expressed in Stage V-VI Xenopus laevis Oocytes by electrophysiological recording. The format is cell-based.
For experiment [17], the system named is Oocyte. Nature of the experiment: Inhibition of rat alpha6/alpha3 D152A mutant beta4 nAChR expressed in Stage V-VI Xenopus laevis Oocytes assessed as inhibition of acetylcholine-induced current by measuring recovery time at 10 uM preincubated with compound for 5 mins followed by washout in presence of acetylcholine by electrophysiological recording. The format is cell-based.

Experiment [18] deals with Nicotinic acetylcholine receptor alpha6/alpha3/beta4 (Rattus norvegicus) (UniProt P04757+P12392+P43143). Nature of the experiment: Inhibition of rat alpha6/alpha3beta4 nAChR expressed in Stage V-VI Xenopus laevis Oocytes assessed as inhibition of acetylcholine-induced current by measuring recovery time at 10 uM preincubated with compound for 5 mins followed by washout in presence of acetylcholine by electrophysiological recording. The class given is cell-based. As to conditions: Oocyte.

The target in experiment [19] is T1, Nicotinic acetylcholine receptor alpha6/alpha3/beta2/beta3 (Rattus norvegicus). Nature of the experiment: Inhibition of rat alpha6/alpha3beta2beta3 nAChR expressed in Stage V-VI Xenopus laevis Oocytes assessed as inhibition of acetylcholine-induced current at 10 uM in presence of acetylcholine by electrophysiological recording. The class given is cell-based. The note with it: Oocyte.

For experiment [20], the target named is Neuronal acetylcholine receptor; alpha4/beta4 (Rattus norvegicus) (UniProt P09483+P12392). Nature of the experiment: Inhibition of rat alpha4/beta4 nAChR expressed in Stage V-VI Xenopus laevis Oocytes assessed as inhibition of acetylcholine-induced current at 10 uM in presence of acetylcholine by electrophysiological recording relative to control. The class given is cell-based. The note with it: Oocyte.

For experiment [21], the target named is Neuronal acetylcholine receptor; alpha3/beta2 (Rattus norvegicus, UniProt P04757+P12390). Nature of the experiment: Inhibition of rat alpha3/beta2 nAChR expressed in Stage V-VI Xenopus laevis Oocytes assessed as inhibition of acetylcholine-induced current in presence of acetylcholine by electrophysiological recording. The format is cell-based, Oocyte.
Sequence of Neuronal acetylcholine receptor; alpha3/beta2 (P04757 whole entry): as the sequence (P04757 whole entry) above
Sequence of Neuronal acetylcholine receptor; alpha3/beta2 (P12390 whole entry): as the sequence (P12390 whole entry) above
Experiment [22] deals with Neuronal acetylcholine receptor; alpha3/beta2 (Rattus norvegicus) (UniProt P04757+P12390). Nature of the experiment: Inhibition of rat alpha3/beta2 nAChR expressed in Stage V-VI Xenopus laevis Oocytes assessed as inhibition of acetylcholine-induced current at 10 uM in presence of acetylcholine by electrophysiological recording relative to control. As to conditions: Oocyte. The format is cell-based.

For experiment [23], the species on record is Rattus norvegicus. Nature of the experiment: Inhibition of rat alpha6/alpha3 E195A mutant beta4 nAChR expressed in Stage V-VI Xenopus laevis Oocytes assessed as acetylcholine-induced current response at 1 uM in presence of 100 uM acetylcholine by electrophysiological recording relative to control. The class given is cell-based.

Regarding `CC(C)[C@H](NC(=O)[C@@H]1CCCN1C(=O)[C@H](CC(N)=O)NC(=O)[C@H](C)NC(=O)[C@H](CS)NC(=O)[C@H](CS)NC(=O)[C@@H](N)CCCNC(=N)N)C(=O)N[C@@H](CS)C(=O)N[C@@H](CC(N)=O)C(=O)NCC(=O)N[C@@H](CCCCN)C(=O)N[C@@H](Cc1cnc[nH]1)C(=O)N[C@@H](CS)C(N)=O` (H-RCCANPVCNGKHC-NH2), the IC50 in experiment [1] was 0.959 µM; in [2], over 10 µM; in experiment [3], over 10 µM; in experiment [5] it was over 10 µM; in [6] it was over 10 µM; in experiment [8] it was over 10 µM. Also, the IC50 in [9] is over 10 µM; in [12] it was 0.063 µM; in experiment [21] it was over 10 µM. In the experiment with Oocyte [4], the Activity came to 66.3%. The figures for the TIME (in the experiment on Oocyte [7]; in the experiment on Oocyte [17]; in experiment [18]) were 0.0167 h, 0.0667 h and 0.333 h, respectively. Also, the Ratio IC50 is 0.97 in the experiment filed under Rattus norvegicus [10], 3.3 in the experiment filed under Rattus norvegicus [11] and 24.7 in the experiment filed under Rattus norvegicus [16]. The inhibition is under 50% in [13]; under 50% in experiment [14]; under 50% in [15]; under 50% in experiment [20]; under 50% in experiment [22]; 49.3% in the experiment listed under Rattus norvegicus [23]. The inhibition entry in experiment [19] is “inactive”.

Broadly, the IC50 is the concentration that gives 50% inhibition. For orientation: inhibition means the share of the control response that was lost under treatment.
